Measured values from ChEMBL document CHEMBL1145655, “Plant anticancer agents XXV. Constituents of Soulamea soulameoides” (1983).
Converted amounts (≈) assume the structure as drawn.

Assays:
Type in all cases: functional
P388 [1] = test: Cytotoxicity against mouse P388 cells; conditions: read-out: ED50 (the source's name)
KB = test: Cytotoxicity against human KB cells; conditions: read-out: ED50 (the source's name)
P388 [2] = test: In vivo antitumor activity against mouse P388 cells at 1 mg/kg relative to control
P388 [3] = test: In vivo antitumor activity against mouse P388 cells at 0.5 mg/kg relative to control
P388 [4] = test: In vivo antitumor activity against mouse P388 cells at 0.25 mg/kg relative to control
P388 [5] = test: In vivo antitumor activity against mouse P388 cells at 5 mg/kg relative to control
P388 [6] = test: In vivo antitumor activity against mouse P388 cells at 19.6 mg/kg relative to control
P388 [7] = test: In vivo antitumor activity against mouse P388 cells at 9.83 mg/kg relative to control
P388 [8] = test: In vivo antitumor activity against mouse P388 cells at 2.46 mg/kg relative to control
P388 [9] = test: In vivo antitumor activity against mouse P388 cells at 4.92 mg/kg relative to control
P388 [10] = test: In vivo antitumor activity against mouse P388 cells at 7.5 mg/kg relative to control
P388 [11] = test: In vivo antitumor activity against mouse P388 cells at 3.8 mg/kg relative to control
P388 [12] = test: In vivo antitumor activity against mouse P388 cells at 1.9 mg/kg relative to control
P388 [13] = test: In vivo antitumor activity against mouse P388 cells at 0.9 mg/kg relative to control
P388 [14] = test: In vivo antitumor activity against mouse P388 cells at 1.25 mg/kg relative to control
P388 [15] = test: In vivo antitumor activity against mouse P388 cells at 2.5 mg/kg relative to control

COc1cc([C@H]2Oc3c(OC)cc4ccc(=O)oc4c3O[C@@H]2CO)ccc1O [CLEOMISCOSIN A]
EC50 (P388 [1]): 2.8 mg/L (≈ 7.25 µM)
EC50 (KB): 4.9 mg/L (≈ 12.7 µM)

COC(=O)[C@]12OC[C@]34[C@H]([C@@H](O)[C@@H]1O)[C@@]1(C)[C@H](O)C(=O)C=C(C)[C@@H]1C[C@H]3OC(=O)[C@H](OC(=O)CC(C)C)[C@@H]24 [ISOBRUCEIN A]
T/C (P388 [2]): 155%
EC50 (P388 [1]): 0.001 mg/L (≈ 0.00191 µM)
T/C (P388 [3]): 145%
EC50 (KB): 0.003 mg/L (≈ 0.00574 µM)
T/C (P388 [4]): 138%

CC1=CC(=O)[C@@H](O)[C@]2(C)[C@H]3[C@]4(O)OC[C@]35[C@H]([C@@H](C)[C@H]4O)[C@@H](O)C(=O)O[C@@H]5C[C@@H]12 [GLAUCARUBOLONE]
EC50 (P388 [1]): 0.01 mg/L (≈ 0.0254 µM)
T/C (P388 [5]): 132%
EC50 (KB): 0.11 mg/L (≈ 0.279 µM)

COC1=C(C)[C@@H]2CC(=O)O[C@@H]3C[C@H]4C(C)=C[C@H](O)C(=O)[C@]4(C)[C@@H](C1=O)[C@@]32C [PICRASIN B]
T/C (P388 [6]): 107%
T/C (P388 [7]): 107%
EC50 (P388 [1]): > 100 mg/L
T/C (P388 [8]): 107%
T/C (P388 [9]): 102%
EC50 (KB): > 100 mg/L

CC(=O)O[C@H]1C(=O)O[C@@H]2C[C@H]3C(C)=CC(=O)[C@@H](O)[C@]3(C)[C@H]3[C@]4(O)OC[C@]32[C@@H]1[C@@H](C)[C@H]4O [HOLACANTHONE]
T/C (P388 [10]): 136%
T/C (P388 [11]): 154%
T/C (P388 [12]): 134%
T/C (P388 [13]): 127%

O=c1ccc2nccc3c4c(O)cccc4n1c23
T/C (P388 [14]): 108%
EC50 (P388 [1]): 2.3 mg/L (≈ 9.74 µM)
T/C (P388 [5]): 102%
EC50 (KB): 2.1 mg/L (≈ 8.89 µM)
T/C (P388 [15]): 107%
